Consider ten compounds from patent US20260008758A1, “LINEAR DIPEPTIDYL PEPTIDASE 1 INHIBITORS AND USES THEREOF” (Insmed Incorporated, priority 2024, published 2026).

One test concerns the target human DPP1 enzyme (Homo sapiens (Human), UniProt P53634). In words: Human DPP1 enzyme IC50 assay. Format: biochemical. Particulars: recombinant human DPP1, H-Gly-Arg-AMC substrate 400 μM. The method in brief:
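Fluorogenic readout (350/450 nm, every 5 min over 90 min, 37°C) of H-Gly-Arg-AMC cleavage at 400 μM final substrate. Compounds met activated DPP1 first for a 10-min 37°C pre-incubation in MES buffer pH 6.0 with DTT, 1% DMSO final. Four-parameter sigmoidal fit gave IC50.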

For another test, the target named is DPP1 in HL-60 cells (Homo sapiens (Human), UniProt P53634). In words: DPP1 Cell IC50 assay. Format: cell-based. The settings on record: H-Gly-Phe-AFC substrate, 60 min pre-incubation. As for the experimental part:
Media was changed every three to four days and cells were not allowed to exceed 1×10^6 cells per mL. Prior to assay, cells were collected by centrifugation at 500 rcf for 3 minutes, resuspended in PBS and counted. Cells were diluted in PBS to a concentration of 5×10^5 live cells per mL and transferred to black 96-well plates for assay, 60 μL per well. Test articles were diluted in PBS plus 0.5% DMSO, and 20 μL was added to each assay well. Compound was allowed to pre-incubate with cells with gentle shaking at 100 rpm for 60 minutes at 37° C. in a cell culture incubator maintained at 5% CO2, after which 20 μL of 500 μM H-Gly-Phe-AFC substrate (MP Biomedicals; Solon, OH) was added to each well. Plates were returned to the incubator with shaking at 100 rpm for 30 minutes, after which fluorescence was measured at Excitation/Emission 400/505 nm. % Inhibition was calculated from RFU values compared to control cell wells that received only PBS plus 0.5% DMSO. IC50 values for each compound were calculated via the XLFit (IDBS Version 5.3.1.3) Add-On to Microsoft Excel using the four parameter fit equation y=(A+((B-A)/(1+((C/x)^D)))), which appears as equation number 205 (4 Parameter Logistic Model or Sigmoidal Dose-Response Model) in XLFit.

Some results are limits rather than exact numbers.

Chain of human DPP1 enzyme (P53634 25-134): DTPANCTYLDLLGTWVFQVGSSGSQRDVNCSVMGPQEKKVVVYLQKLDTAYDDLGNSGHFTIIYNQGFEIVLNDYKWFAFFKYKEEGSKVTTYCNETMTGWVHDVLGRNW
Chain of human DPP1 enzyme (P53634 231-394): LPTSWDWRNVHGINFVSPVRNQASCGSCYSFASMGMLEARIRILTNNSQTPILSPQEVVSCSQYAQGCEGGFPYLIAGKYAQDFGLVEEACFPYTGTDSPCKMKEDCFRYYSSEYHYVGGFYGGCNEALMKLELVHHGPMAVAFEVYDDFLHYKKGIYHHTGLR
Chain of human DPP1 enzyme (P53634 395-463): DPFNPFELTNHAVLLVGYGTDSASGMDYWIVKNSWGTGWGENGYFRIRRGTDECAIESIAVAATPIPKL
Chain of DPP1 in HL-60 cells (P53634 25-134): as the sequence (P53634 25-134) above
Chain of DPP1 in HL-60 cells (P53634 231-394): as the sequence (P53634 231-394) above
Chain of DPP1 in HL-60 cells (P53634 395-463): as the sequence (P53634 395-463) above

One may read the IC50 as the concentration that gives 50% inhibition. On to `Cn1c(=O)oc2ccc(-c3ccc(C[C@@H](C#N)NC(=O)[C@@H](O)CN)cc3)cc21` [Compound 110, (2S)-3-amino-N-[(1S)-1-cyano-2-[4-(3-methyl-2-oxo-1,3-benzoxazol-5-yl)phenyl]ethyl]-2-hydroxypropanamide], for which the IC50 on human DPP1 enzyme is not below 15 nM; against DPP1 in HL-60 cells, not below 2.5 nM.
In the case of `CNC[C@H](O)C(=O)N[C@H](C#N)Cc1ccc(-c2ccc3oc(=O)n(C)c3c2)cc1` [Compound 111, (2S)—N-[(1S)-1-cyano-2-[4-(3-methyl-2-oxo-1,3-benzoxazol-5-yl)phenyl]ethyl]-2-hydroxy-3-(methylamino)propanamide], the concentration for half-maximal inhibition (IC50) is not below 15 nM on human DPP1 enzyme and not below 2.5 nM on DPP1 in HL-60 cells.
For `CN(C)C[C@H](O)C(=O)N[C@H](C#N)Cc1ccc(-c2ccc3nnn(C)c3c2)cc1F` [Compound 141, (2S)—N-[(1S)-1-cyano-2-[2-fluoro-4-(3-methyl-1,2,3-benzotriazol-5-yl)phenyl]ethyl]-3-(dimethylamino)-2-hydroxypropanamide], the results for the IC50 on human DPP1 enzyme and at DPP1 in HL-60 cells were 5 to 15 nM and 1 to 2.5 nM, respectively.
Consider `CN(C)C[C@H](O)C(=O)N[C@H](C#N)Cc1ccc(-c2ccc3oc(=O)n(CCN4CCOCC4)c3c2)cc1F` [Compound 142, (2S)—N-[(1S)-1-cyano-2-(2-fluoro-4-{3-[2-(morpholin-4-yl)ethyl]-2-oxo-1,3-benzoxazol-5-yl}phenyl)ethyl]-3-(dimethylamino)-2-hydroxypropanamide], for which the IC50 on human DPP1 enzyme is 5 to 15 nM; against DPP1 in HL-60 cells, not below 2.5 nM.
Take `CN(C)C[C@H](O)C(=O)N[C@H](C#N)Cc1ccc(-c2ccc3c(c2)C2(CCN(C4COC4)CC2)OC3)cc1` [Compound 144, (2S)—N-[(1S)-1-cyano-2-{4-[1′-(oxetan-3-yl)-3H-spiro[2-benzofuran-1,4′-piperidin]-6-yl]phenyl}ethyl]-3-(dimethylamino)-2-hydroxypropanamide]: the concentration for half-maximal inhibition (IC50) at human DPP1 enzyme was not below 15 nM; on DPP1 in HL-60 cells, not below 2.5 nM.
For the compound `CN(C)C[C@H](O)C(=O)N[C@H](C#N)Cc1ccc(-c2ccc3c(c2)C2(CCCN(C)C2)C(=O)N3C)cc1` (stereo partly drawn) [Compound 145, (2S)—N-[(1S)-1-cyano-2-(4-{1,1′-dimethyl-2-oxospiro[indole-3,3′-piperidin]-5-yl}phenyl)ethyl]-3-(dimethylamino)-2-hydroxypropanamide], the half-maximal inhibitory concentration (IC50) on human DPP1 enzyme is not below 15 nM; against DPP1 in HL-60 cells, 1 to 2.5 nM.
Take `CCCCOCCn1c(=O)oc2ccc(-c3ccc(C[C@@H](C#N)NC(=O)[C@@H](O)CN(C)C)c(F)c3)cc21` [Compound 146, (2S)—N-[(1S)-2-{4-[3-(2-butoxyethyl)-2-oxo-1,3-benzoxazol-5-yl]-2-fluorophenyl}-1-cyanoethyl]-3-(dimethylamino)-2-hydroxypropanamide]: the 50% inhibitory concentration (IC50) was 5 to 15 nM at human DPP1 enzyme and not below 2.5 nM against DPP1 in HL-60 cells.
Take `Cn1c(=O)oc2ccc(-c3ccc(C[C@@H](C#N)NC(=O)[C@H](N)CCO)cc3)cc21` [Compound 169, (2R)-2-amino-N-[(1S)-1-cyano-2-[4-(3-methyl-2-oxo-1,3-benzoxazol-5-yl)phenyl]ethyl]-4-hydroxybutanamide]: the values for the IC50 at human DPP1 enzyme and at DPP1 in HL-60 cells were not below 15 nM and not below 2.5 nM, respectively.
On to `C[C@@H](O)[C@](C)(N)C(=O)N[C@H](C#N)Cc1ccc(-c2ccc3oc(=O)n(C)c3c2)cc1` [Compound 171A, (2S,3R)-2-amino-N-[(1S)-1-cyano-2-[4-(3-methyl-2-oxo-1,3-benzoxazol-5-yl)phenyl]ethyl]-3-hydroxy-2-methylbutanamide], for which the half-inhibitory concentration (IC50) at human DPP1 enzyme was not below 15 nM; against DPP1 in HL-60 cells it was not below 2.5 nM.
The corresponding values for `C[C@H](O)[C@](C)(N)C(=O)N[C@H](C#N)Cc1ccc(-c2ccc3oc(=O)n(C)c3c2)cc1` [Compound 171B, (2S,3S)-2-amino-N-[(1S)-1-cyano-2-[4-(3-methyl-2-oxo-1,3-benzoxazol-5-yl)phenyl]ethyl]-3-hydroxy-2-methylbutanamide] are not below 15 nM and not below 2.5 nM.
